Experimental data as given in US20230131899A1, “INHIBITORS OF MICROBIALLY INDUCED AMYLOID” (Axial Therapeutics, Inc., priority 2020, published 2023).
Where two headings read alike, the source gives them in different places.

Assays:
human α-synuclein = target: T1, human α-synuclein (Homo sapiens, UniProt P37840); assay: Cell-free Thioflavin T assay of α-synuclein aggregation (αSyn ThT Assay); assay type: biochemical; details: αSyn 50 μM
T1 construct: the full-length gene for untagged human α-synuclein was inserted; made in house; host or cells: E. coli BL21(DE3), plasmid derived from pT7 or pET11a
Protocol: To assess the effects of compounds on aggregation of α-synuclein, a cell-free assay was performed using purified α-synuclein and Thioflavin T. In the assay, human α-synuclein was expressed in E. coli BL21(DE3) from a plasmid derived from pT7 or pET11a into which the full-length gene for untagged human α-synuclein was inserted. Cells were induced at OD600 0.6 with 0.8 mM IPTG for 4 hours, harvested by centrifugation and suspended in a volume of lysis buffer (10 mM Tris, pH 8.0, 1 mM EDTA, and 1 mM PMSF) equivalent to one-tenth the volume of culture and lysed by boiling for 20 minutes. Cell debris was pelleted by centrifugation, clarified lysate was treated with 10% streptomycin sulfate at 136 μL/mL followed by glacial acetic acid at 228 μL/mL, lysate was centrifuged, supernatant was transferred to a fresh tube and protein was precipitated via addition of an equal volume of saturated (100%) ammonium sulfate and incubated at 4° C. on a rocking shaker for 1 hour. The protein was pelleted via centrifugation and washed with an equal volume of 100 mM ammonium acetate in chilled ethanol, pelleted via centrifugation, washed twice with chilled ethanol, dried overnight, resuspended in 50 mM potassium phosphate buffer pH 7.3 or 10 mM Tris pH 7.4, and passed through a 50 kDa cut-off column. Immediately prior to use, the purified α-synuclein was filtered with a 0.2 μm nylon filter. The assay was conducted in 96-well black microplates with a single 1-2 mm glass bead in each well, 20-40 μM ThioflavinT, 1% DMSO, α-synuclein at 50 μM and compounds at 20-100 μM. Plates were sealed with sealing tape (ThermoFisher 232701), incubated at 37° C. in a Tecan Nano F200 plate reader with excitation at 438 nm using a 439 nm filter with a bandwidth of 8 nm, and emission at 495 nm with a 490 nm filter with a bandwidth of 10 nm. During the assay, plates were shaken continuously or were shaken for 999 seconds every 18 minutes. Readings were performed hourly for up to 73 hours. The effect of compounds on α-synuclein aggregation in the assay was determined with data at 36, 47, 48 or 72 hours or from the final timepoint of the assay, prior to or roughly near the time when ThT fluorescence plateaued in the vehicle control wells. The vehicle controls contained all components of the assay except compounds and represented the level of α-synuclein aggregation in the absence of an inhibitor or accelerator. Fluorescence values for each compound with α-synuclein were first adjusted by subtracting the average fluorescence of the compound in the absence of α-synuclein. These adjusted values were normalized by dividing them by the average fluorescence at the same timepoint in the vehicle control wells, and the average normalized fluorescence with the compound was expressed as a percentage of the average fluorescence observed in untreated controls. Percent inhibition of α-synuclein aggregation by a compound was determined by subtracting the percent average fluorescence with the compound relative to the average vehicle control from 100%. A higher positive percent inhibition reflects greater inhibition of α-synuclein aggregation, while a negative percent inhibition reflects potentiation of α-synuclein aggregation.
Alternate concentrations of Thioflavin T may be used in the assay and may affect the fluorescent signal and sensitivity of the assay. Alternate concentrations of α-synuclein may be used and such alterations may affect aggregation kinetics of α-synuclein in the assay. Alternate concentrations of compounds may be tested in the assay, and dose-responses may be evaluated. Additional reagents may be added to the assay which may affect aggregation kinetics of α-synuclein depending on their concentration, including detergents such as sodium dodecyl sulfate, sodium chloride, dithiotreitol, or bovine serum albumin. Shaking may be included at alternate intervals in the assay and may affect α-synuclein aggregation kinetics. […]

E. coli CsgA = target: T2, E. coli CsgA (Escherichia coli, UniProt P28307); assay: In vitro ThioflavinT assay of CsgA aggregation (CsgA ThT Assay); assay type: biochemical; details: for remaining activity at 100 µM: compound 100 μM
T2 construct: made in house; host or cells: E. coli NEB 3016 slyD::kan, pET11d
How it was run: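 Purified C-terminal His-tagged CsgA, monomerised by desalting and 30-kDa filtration, at 2-20 μM with 20-40 μM ThT in 50 mM potassium phosphate pH 7.3, 1% DMSO, compounds 3.125-200 uM; room temperature, fluorescence (ex 438/em 495 nm) read every 15 min. Background-subtracted signal expressed as percent inhibition versus vehicle at 6-6.5 or 8-9 h, or as percent control AUC.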

[1] = mean % inhibition of αSyn aggregation relative to DMSO control, compounds at 100 μM, read-out: αSyn ThT Assay % Inhibition
[2] = compounds at 100 μM, class symbol, read-out: αSyn ThT Assay % Inhibition (activity range)
[3] = read-out: CsgA ThT Assay (10 μM CsgA) % Control AUC at 1005 minutes, 25 μM (activity range), CsgA 10 μM, black plates, compound 25 μM, 1005 minutes, class symbol
[4] = read-out: CsgA ThT Assay (10 μM CsgA) % Control AUC at 1005 minutes, 25 μM, mean AUC as % of DMSO control, CsgA 10 μM, black plates, compound 25 μM, 1005 minutes
[5] = read-out: CsgA ThT Assay (10 μM CsgA) % Control AUC at 1005 minutes, 100 μM (activity range), CsgA 10 μM, black plates, 1005 minutes, class symbol
[6] = read-out: CsgA ThT Assay (10 μM CsgA) % Control AUC at 1005 minutes, 100 μM, mean AUC as % of DMSO control, CsgA 10 μM, black plates, 1005 minutes

T2 sequence (P28307 23-151): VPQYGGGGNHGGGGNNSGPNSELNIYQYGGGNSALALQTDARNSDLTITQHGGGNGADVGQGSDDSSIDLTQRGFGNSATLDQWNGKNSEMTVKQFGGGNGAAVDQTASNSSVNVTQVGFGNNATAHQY

Q: How did the inhibition at 100 µM (human α-synuclein; [1]) turn out when O=C(O)c1csc2c(-c3cccc(C(F)(F)F)c3)c(Cc3cccc4ccccc34)cc(=O)n12 [Compound 019, 7-(naphthalen-1-ylmethyl)-5-oxo-8-(3-(trifluoromethyl)phenyl)-5H-thiazolo[3,2-a]pyridine-3-carboxylic acid] was run?
A: The inhibition at 100 µM was 41%.

Q: What about the inhibition at 100 µM (human α-synuclein; [2]) of the same molecule?
A: Its inhibition at 100 µM is 31 to 60%.

Q: And the remaining activity at 25 µM (E. coli CsgA; [3])?
A: Its remaining activity at 25 µM is over 60%.

Q: What about the remaining activity at 25 µM (E. coli CsgA; [4]) of the same molecule?
A: Its remaining activity at 25 µM is 69%.

Q: What about the remaining activity at 100 µM (E. coli CsgA; [5]) of the same molecule?
A: Its remaining activity at 100 µM is over 60%.

Q: What about the remaining activity at 100 µM (E. coli CsgA; [6]) of the same molecule?
A: Its remaining activity at 100 µM is 104%.

Q: Which inhibition at 100 µM (human α-synuclein; [1]) does the source give for Nc1c(Cc2cccc3ccccc23)c(-c2cccc(C(F)(F)F)c2)c2scc(C(=O)O)n2c1=O [Compound 050, 6-amino-7-(naphthalen-1-ylmethyl)-5-oxo-8-(3-(trifluoromethyl)phenyl)-5H-thiazolo[3,2-a]pyridine-3-carboxylic acid] here?
A: Its inhibition at 100 µM is 49%.

Q: And the inhibition at 100 µM (human α-synuclein; [2])?
A: Its inhibition at 100 µM is 31 to 60%.

Q: And the remaining activity at 25 µM (E. coli CsgA; [3])?
A: The remaining activity at 25 µM was 31 to 60%.

Q: And the remaining activity at 25 µM (E. coli CsgA; [4])?
A: The remaining activity at 25 µM was 36%.

Q: And the remaining activity at 100 µM (E. coli CsgA; [5])?
A: Its remaining activity at 100 µM is 11 to 31%.

Q: And the remaining activity at 100 µM (E. coli CsgA; [6])?
A: The remaining activity at 100 µM was 22%.

Q: Which inhibition at 100 µM (human α-synuclein; [1]) does the source give for CC(=O)Nc1ccc(Cc2cc(=O)n3c(c2-c2cccc(C(F)(F)F)c2)S(=O)(=O)N(C)CC3C(=O)O)c2ccccc12 (stereo not drawn) [Compound 048] here?
A: Its inhibition at 100 µM is 18%.

Q: What about the inhibition at 100 µM (human α-synuclein; [2]) of the same molecule?
A: Its inhibition at 100 µM is 11 to 30%.

Q: And the remaining activity at 25 µM (E. coli CsgA; [3])?
A: Its remaining activity at 25 µM is over 60%.

Q: And the remaining activity at 25 µM (E. coli CsgA; [4])?
A: The remaining activity at 25 µM was 90%.

Q: What about the remaining activity at 100 µM (E. coli CsgA; [5]) of the same molecule?
A: Its remaining activity at 100 µM is over 60%.

Q: What about the remaining activity at 100 µM (E. coli CsgA; [6]) of the same molecule?
A: Its remaining activity at 100 µM is 61%.

Q: With COc1cccc(CN2CC(C(=O)O)n3c2c(-c2cccc(C(F)(F)F)c2)c(Cc2cccc4ccccc24)c(Cl)c3=O)c1 (stereo not drawn) [Compound 191, 6-chloro-1-(3-methoxybenzyl)-7-(naphthalen-1-ylmethyl)-5-oxo-8-(3-(trifluoromethyl)phenyl)-1,2,3,5-tetrahydroimidazo[1,2-a]pyridine-3-carboxylic acid] as the molecule, how does the inhibition at 100 µM (human α-synuclein; class symbol, compounds 100 μM, read-out: αSyn ThT Assay % inhibition, activity range) read?
A: Its inhibition at 100 µM is 31 to 60%.

Q: And the inhibition at 100 µM (human α-synuclein; mean percent inhibition relative to DMSO control, compounds 100 μM, read-out: αSyn ThT Assay % inhibition)?
A: Its inhibition at 100 µM is 55%.

Q: What about the remaining activity at 25 µM (E. coli CsgA; read-out: CsgA ThT Assay (2 μM CsgA) % Control Bmax 25 μM, activity range, class symbol, CsgA 2 μM, white plates, compound 25 μM) of the same molecule?
A: Its remaining activity at 25 µM is 31 to 60%.

Q: What about the remaining activity at 25 µM (E. coli CsgA; read-out: CsgA ThT Assay (2 μM CsgA) % Control Bmax 25 μM, mean Bmax as percentage of DMSO control, CsgA 2 μM, white plates, compound 25 μM) of the same molecule?
A: The remaining activity at 25 µM was 58%.

Q: What about the remaining activity at 100 µM (E. coli CsgA; read-out: CsgA ThT Assay (2 μM CsgA) % Control Bmax 100 μM, activity range, class symbol, CsgA 2 μM, white plates) of the same molecule?
A: The remaining activity at 100 µM was 31 to 60%.

Q: What about the remaining activity at 100 µM (E. coli CsgA; read-out: CsgA ThT Assay (2 μM CsgA) % Control Bmax 100 μM, mean Bmax as percentage of DMSO control, CsgA 2 μM, white plates) of the same molecule?
A: The remaining activity at 100 µM was 43%.

Q: For CN1CC(C(=O)O)n2c(c(-c3cccc(C(F)(F)F)c3)c(Cc3ccc(NS(C)(=O)=O)c4ccccc34)cc2=O)S1(=O)=O (stereo not drawn) [Compound 067], which inhibition at 100 µM (human α-synuclein; [1]) is on record?
A: Its inhibition at 100 µM is 35%.

Q: What about the inhibition at 100 µM (human α-synuclein; [2]) of the same molecule?
A: The inhibition at 100 µM was 31 to 60%.

Q: And the remaining activity at 25 µM (E. coli CsgA; [3])?
A: The remaining activity at 25 µM was over 60%.

Q: And the remaining activity at 25 µM (E. coli CsgA; [4])?
A: The remaining activity at 25 µM was 67%.

Q: What about the remaining activity at 100 µM (E. coli CsgA; [5]) of the same molecule?
A: The remaining activity at 100 µM was 11 to 31%.

Q: What about the remaining activity at 100 µM (E. coli CsgA; [6]) of the same molecule?
A: The remaining activity at 100 µM was 16%.

Q: Which results are given for CN1CC(C(=O)O)n2c(c(-c3cccc(C(F)(F)F)c3)c(Cc3ccc(N)c4ccccc34)cc2=O)S1(=O)=O (stereo not drawn) [Compound 040]?
A: inhibition at 100 µM (human α-synuclein; [1]): 61%; inhibition at 100 µM (human α-synuclein; [2]): > 60%; remaining activity at 25 µM (E. coli CsgA; [3]): > 60%; remaining activity at 25 µM (E. coli CsgA; [4]): 78%; remaining activity at 100 µM (E. coli CsgA; [5]): < 10%; remaining activity at 100 µM (E. coli CsgA; [6]): 8%

Q: Which results are given for O=C(O)C1CS(=O)(=O)c2c(-c3cccc(C(F)(F)F)c3)c(Cc3cccc4ccccc34)cc(=S)n21 (single isomer, unassigned) [Compound 014a, 7-(naphthalen-1-ylmethyl)-5-thioxo-8-(3-(trifluoromethyl)phenyl)-2,3-dihydro-5H-thiazolo[3,2-a]pyridine-3-carboxylic acid 1,1-dioxide]?
A: inhibition at 100 µM (human α-synuclein; [1]): 68%; inhibition at 100 µM (human α-synuclein; [2]): > 60%; CsgA ThT Assay (10 μM CsgA) % Control AUC at 1005 minutes, 25 μM (activity range) (E. coli CsgA; CsgA 10 μM, black plates, compound 25 μM, 1005 minutes, class symbol): (++) (% control AUC of 31 to 60%); CsgA ThT Assay (10 μM CsgA) % Control AUC at 1005 minutes, 25 μM (E. coli CsgA; mean AUC as % of DMSO control, CsgA 10 μM, black plates, compound 25 μM, 1005 minutes): 37%; remaining activity at 100 µM (E. coli CsgA; [5]): 11 to 31%; remaining activity at 100 µM (E. coli CsgA; [6]): 29%

Q: For O=C(O)CCCN1CC(C(=O)O)n2c(c(-c3cccc(C(F)(F)F)c3)c(Cc3cccc4ccccc34)cc2=O)S1(=O)=O (stereo not drawn) [Compound 029, 2-(3-carboxypropyl)-8-(naphthalen-1-ylmethyl)-6-oxo-9-(3-(trifluoromethyl)phenyl)-3,4-dihydro-2H,6H-pyrido[1,2-e][1,2,5]thiadiazine-4-carboxylic acid 1,1-dioxide], which inhibition at 100 µM (human α-synuclein; [1]) is on record?
A: Its inhibition at 100 µM is -2%.

Q: What about the inhibition at 100 µM (human α-synuclein; [2]) of the same molecule?
A: Its inhibition at 100 µM is -10 to 10%.

Q: What about the remaining activity at 25 µM (E. coli CsgA; [3]) of the same molecule?
A: The remaining activity at 25 µM was over 60%.

Q: What about the remaining activity at 25 µM (E. coli CsgA; [4]) of the same molecule?
A: The remaining activity at 25 µM was 71%.

Q: And the remaining activity at 100 µM (E. coli CsgA; [5])?
A: The remaining activity at 100 µM was 31 to 60%.

Q: And the remaining activity at 100 µM (E. coli CsgA; [6])?
A: The remaining activity at 100 µM was 48%.
